We go through nine substances from article PMC3775761, “Structure-Activity Relationships of FMRF-NH2 Peptides Demonstrate A Role for the Conserved C Terminus and Unique N-Terminal Extension in Modulating Cardiac Contractility” (PLoS ONE, 2013).

Read-outs that look alike come from different tables or passages of the source.

The subject of one test is FMRFa-R. The settings on record: expressed FMRFa-R protein, cited from earlier work. As to the method:
In contrast, when the small, non-aromatic residue A was substituted for F, strong contacts which anchored FMRF-NH2 in the FMRFa-R binding pocket were lost, which substantially weakened ligand-receptor interactions (Figure 5, Tables 5 and 6). In addition, the F ... || Next, the effect of the analog SDNAMRF-NH2 was measured on heart rate at 1 µM. SDNAMRF-NH2 increased adult heart rate by 48±10%, a significant effect similar to SDNFMRF-NH2 (Figure 12, Table 14). The effect of the peptide analog was analyzed in adult because it is a developmental stage in which a robust response occurs which thus allows for subtle changes to be observed. […] Past studies analyzed the effects of some or all of these peptides in a bioassay; yet no report to date investigated th ...

In test [1] the test system is adult, larval, and pupal heart. Description: in vivo semi-isolated heart rate assay. Also noted: species or system Drosophila melanogaster. The settings on record: peptide 1 µM; for % increase in heart rate, Adult: adult heart (1 day adults); for % increase in heart rate, Adult / % increase in heart rate, Larval / % increase in heart rate, Pupal: maximum response within 10-minute recording, mean ± S.E.M., n≥6, basal heart rate = 100%; for % increase in heart rate, Larval: larval heart (wandering 3rd instar larvae); for % increase in heart rate, Pupal: pupal heart (white prepupae). As to the method:
D. melanogaster Oregon R strain flies were maintained on cornmeal molasses media at 24°C under a 12 hour light/dark cycle. Animals analyzed were wandering 3rd instar larvae, white prepupae, and 1 day adults. The effects of peptides and physiological saline, the carrier, were measured on both females and males; no sex-specific response was observed. The in vivo semi-isolated heart rate assays were performed according to a previously reported protocol. The rate of heart contractions for each animal was measured prior to application of a peptide (1 µM) or saline, the carrier, to provide a measure of basal rate. Animals (n≥6) were used only once. During and after delivery of the peptide or saline, contractions were continuously recorded for a 10-minute time period. The data analyzed were the maximum responses within the 10-minute recording period reported as mean values ± S.E.M. Data are reported as % basal heart rate where the frequency of contractions before application of peptide or saline is considered a measure of the baseline or basal level. Effects of peptides were compared to saline using Single Factor ANOVA with significance set at p ≤ 0.01; a peptide was considered to be active if its effects were statistically different from saline. The statistical outcomes were identical when calculated using two different data packages, Microsoft Excel and IBM SPSS.

Setting [2] is: Chinese hamster ovary cells, read-out: EC50, ligand-FMRFa-R binding.
[3] abbreviates: read-out: EC50, peptides bind FMRFa-R.

Turning to AMRF-NH2 [analog replacing F1 with A], in the test with FMRFa-R (setting [2]), the EC50 is 3220 nM.

For the substance “DPKQDFMRF-NH2 [D. melanogaster FMRF-NH2 peptide encoded in dFMRFa]”, in test [1], the “% increase in heart rate, Adult” value is reported as 44±11%; the “% increase in heart rate, Larval” value turned out to be 20±5%; the “% increase in heart rate, Pupal” value worked out at 21±5%. Further, the concentration giving a half-maximal response (EC50) with FMRFa-R (setting [3]) was 2 nM.

For “FMRF-NH2 [conserved C-terminal tetrapeptide; molluscan cardioexcitatory tetrapeptide]”, in test [1], the “% increase in heart rate, Adult” value is recorded as 37±11%; the “% increase in heart rate, Larval” value worked out at 28±8%; the “% increase in heart rate, Pupal” value is recorded as 17±4%. The EC50 with FMRFa-R (setting [2]) is 28 nM.

As for “PDNFMRF-NH2 [D. melanogaster FMRF-NH2 peptide encoded in dFMRFa]”, in test [1], the “% increase in heart rate, Adult” value stood at 51±12%; the “% increase in heart rate, Larval” value was found to be 26±5%; the “% increase in heart rate, Pupal” value is recorded as 27±7%. Moreover, in test [1] (pupal heart, recording period), the “heart rate return to baseline” value was “did not return to baseline within the recording period”. Further, the EC50 in the test with FMRFa-R (setting [3]) was 1.8 nM.

“SDNAMRF-NH2 [designed analog of SDNFMRF-NH2 with F to A substitution]”: in test [1], the “% increase in heart rate, Adult” value came to 48±10%. Besides, the EC50 in the test with FMRFa-R (setting [2]) was 102 nM.

On to “SDNFMRF-NH2 [D. melanogaster FMRF-NH2 peptide encoded in dFMRFa]”, for which, in test [1], the “% increase in heart rate, Adult” value worked out at 39±11%; the “% increase in heart rate, Larval” value is reported as 24±8%; the “% increase in heart rate, Pupal” value is on record as 15±4%. In addition, in the test on FMRFa-R (setting [2]), the concentration for a half-maximal effect (EC50) was 1.9 nM.

“SPKQDFMRF-NH2 [D. melanogaster FMRF-NH2 peptide encoded in dFMRFa]”: in test [1], the “% increase in heart rate, Adult” value is reported as 32±8%; the “% increase in heart rate, Larval” value came out at 23±6%; the “% increase in heart rate, Pupal” value was 12±1%. Further, the EC50 with FMRFa-R (setting [3]) was 2.5 nM.

“TPAEDFMRF-NH2 [D. melanogaster FMRF-NH2 peptide encoded in dFMRFa]”: in test [1], the “% increase in heart rate, Adult” value is listed as 40±2%; the “% increase in heart rate, Larval” value was determined as 20±4%; the “% increase in heart rate, Pupal” value stood at 26±8%. Besides, the EC50 with FMRFa-R (setting [3]) is 2.8 nM.

Consider “YMRF-NH2 [analog in which Y replaced F1]”, for which, in the test with FMRFa-R (setting [2]), the EC50 was 31 nM.

For orientation: EC50 means the concentration that produces a half-maximal response.
